The values below come from EP3454821B1, “MICELLES OF D-ALPHA-TOCOPHERYL POLYETHYLENE GLYCOL 1000 SUCCINATE” (Phytoceutical Limited, priority 2016, dated 2017).

SMILES strings stand for the structures. Entries after “also recorded” stand apart in the source; their conditions may differ.

The data set can be described thus: Dissolution of Retinol in water. The class given is physicochemical. To be noted: without TPGS. The text has this:
All attempts to dissolve Retinol in water were unsuccessful except when using a micellar formulation with TPGS, as per the method described in Example 1.
Retinol. No research was undertaken on Objective 2 because Retinol is insoluble in water.

As to `CC1=C(/C=C/C(C)=C/C=C/C(C)=C/CO)C(C)(C)CCC1` [Retinol], the solubility in water result is recorded as “insoluble; also recorded: unsuccessful”.
